From patent publication US20060234390A1, “Process for determining target function and identifying drug leads” (priority 2002, published 2006)
“Also recorded” adds a separate entry of the source.

Columns and labels:
P38 MAP kinase [1] = biological target: T1, P38 MAP kinase (Homo sapiens, UniProt Q16539); assay: HPLC based Chemical Array binding assay (protein-bound vs free compounds, UV and mass spectrum); conditions: for identity of the compound extracted from the mixture and released from the protein (mass spectrum): 5 uM P38 MAP kinase + 5 uM mixture of Quinine and 86002
T1 construct: purchased Sigma
Description: (§1) Drug-like chemical compounds representing a collection of drug-like chemical scaffolds (Sigma-Aldrich, ICN, Calbiochem) were weighed and mixed to a final concentration of 20 uM each in 50 mM ammonium acetate pH 7, 10% methanol. 1 uM to 20 uM tubulin or P38 MAP kinase (Sigma) were dispensed into HPLC low volume sample cuvettes (Waters) and mixed with 0.5 uM to 20 uM compounds. After mixing and a 15 minute 37° C. incubation, the cuvettes were placed on ice and injected into the HPLC (Waters 2690) using an autoinjector (Waters) onto a 150 mm×2.1 mm ID Pinkerton GFF II column (Regis Technologies) for dual size exclusion and phase separation with a 50 mM ammonium acetate, 10% methanol running buffer.
(§2) We optimized the column dimensions and the choice of resin to maximize the separation of the compounds bound to the protein targets from the unbound compounds. Resins which elute protein in the void volume and small column diameters and lengths which minimize the void volume were used. Such columns minimize the amount of dilution of the protein sample and minimize the time required for each assay, thereby minimizing the amount of bound compound that dissociates from the protein (as governed by the Koff rate). […] A number of HPLC columns, including the Regis 150 mm×2.1 mm GFF II column, a 1.0 mm×100 mm YMC Diol column, a 2.1 mm×150 mm Phenomonex Polyhydroxymethacrylate (Polysep) column, and a Jordi 2.1×150 mm Divinyl Benzene column, were tested. Similarly, other running buffers were tested in which the salt and methanol concentration were varied, and the ratio of protein target to small compounds in the binding reaction was varied from 1000:1 to 1:1000. Resins representative of different classes were tested for their ability to separate the protein fraction from the drug-like small molecule compounds, and to minimize the cycle time for all of the compounds to elute from the column. These characteristics of the columns are determined by surface properties and limitations on flow rates due to resins collapsing under backpressure. […] In applications where a longer cycle time (e.g., over 10 minutes per run) is acceptable, any of the above columns or a series of the above columns may be used.
(§3) For shorter cycle times, other columns may be used.

tubulin = assay: as above; conditions: tubulin 0, 5 and 20 uM; 10 compound mixture, 0.5 uM each; GFF II column
Description: as §1, §2, §3

P38 MAP kinase [2] = biological target: T1, P38 MAP kinase; conditions: stated as a known property of the ligand; cited from earlier work
[3] = P38 0, 2.5, 5 and 10 uM, 86002 and quinine 5 uM each, Diol column

T1 sequence (Q16539 whole entry): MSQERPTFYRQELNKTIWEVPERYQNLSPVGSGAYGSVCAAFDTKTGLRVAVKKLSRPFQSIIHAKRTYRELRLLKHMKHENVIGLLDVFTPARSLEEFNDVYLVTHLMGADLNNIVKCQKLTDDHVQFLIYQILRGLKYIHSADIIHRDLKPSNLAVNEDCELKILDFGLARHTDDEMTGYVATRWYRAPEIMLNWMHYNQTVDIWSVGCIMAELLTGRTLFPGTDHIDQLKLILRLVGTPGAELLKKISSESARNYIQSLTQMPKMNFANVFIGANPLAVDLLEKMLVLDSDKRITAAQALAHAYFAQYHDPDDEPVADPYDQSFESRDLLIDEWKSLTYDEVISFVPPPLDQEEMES

| Structure (SMILES) | mass spectrum of the collected protein fraction compared with the standard (P38 MAP kinase [1]; 5 uM P38 MAP kinase + 5 uM 86002, Diol column) | identity of the compound extracted from the mixture and released from the protein (mass spectrum) (P38 MAP kinase [1]) | reduction of the free compound UV peak with increasing P38 MAP kinase (P38 MAP kinase [1]; [3]) | reduction of the free compound UV peak with increasing P38 MAP kinase (P38 MAP kinase [1]; P38 0, 3.5 and 5 uM, 10 compound mixture, 0.5 uM each, GFF II column) | level of the characteristic peak in the mass spectrum of the protein fraction (P38 MAP kinase [1]; P38 2 uM, 100 compound mixture, 20 uM each, GFF II column) | level of the characteristic peaks in the mass spectrum of the protein fraction (P38 MAP kinase [1]; P38, 10 compound mixture, 0.5 uM each, GFF II column) | reduction of the free compound UV peak with increasing tubulin (tubulin) | affinity for the P38 MAP kinase protein target (P38 MAP kinase [2]) |
| --- | --- | --- | --- | --- | --- | --- | --- | --- |
| Fc1ccc(-c2nc3n(c2-c2ccncc2)CCS3)cc1 [SKB86002] | corresponded to the 86002 standard | identified as 86002 | concentration dependant reduction | concentration dependent reduction | binds and extracts; also recorded: at a level far higher than other peaks | at a level far higher than other peaks | negligible reduction | micromolar affinity |
| C=C[C@H]1CN2CC[C@H]1C[C@H]2[C@H](O)c1ccnc2ccc(OC)cc12.Cl [quinine, quinine monohydrochloride] | – | not quinine | negligible reduction | – | – | – | – | – |
